PMC9960331, “Antioxidant and Anticancer Potential of the New Cu(II) Complexes Bearing Imine-Phenolate Ligands with Pendant Amine N-Donor Groups” (Pharmaceutics, 2023)
Read-outs that look alike come from different tables or passages of the source.

How the values were obtained:
[1] = tested on: MRC-5; assay: Alkaline comet assay, MRC-5; type: cell-based, human; details: for Damage Índex (DI) ± SD, MRC-5: 3 h
Protocol: (§1) For genotoxicity assays, 1.0 × 10^4 cells were seeded on twenty-four-well plates and incubated for 24 h. […] Each dose was evaluated by three independent experiments. The alkaline comet assay was performed as described by Singh et al.. Following treatment, cells were trypsinized and resuspended in a complete medium. Slides were prepared with 20 μL of cellular suspension and were dissolved in 0.75% low melting-point agarose. Slides were immersed in cold lysis buffer (2.5 M NaCl, 100 mM EDTA, 10 mM Tris, 1% Triton X-100, 10% DMSO, pH 10) for at least 1 h. Slides were placed in an electrophoresis chamber with cold alkaline buffer (300 mM NaOH and 1 mM de EDTA, pH > 13) to unwind the DNA. Electrophoresis was performed at 0.7 V/cm, 300 mA for 30 min at 4 °C. Slides were then neutralized with Tris–HCl buffer (pH 7.5) for 15 min and stored at room temperature. Slides were stained with silver staining protocol. The gels were then left to dry overnight at room temperature before being analyzed. From two replicate slides, 100 cells were selected and analyzed for DNA migration. Migration of DNA fragments was determined according to comet class as described by Azqueta: class 0, intact nuclei, without tail; class 1, nuclei with tail less than the diameter of the nucleus; class 2, tail size varying between one and two times the diameter of the nucleus; class 3, tail size varying between two and three times the diameter of the nucleus; and class 4, tail size more than three times the diameter of the nucleus but with the head and tail of the comet still distinguishable. The DI ranges from 0 (100 completely undamaged cells × 0) to 400 (100 cells with maximum damage × 4).

[2] = tested on: MCF-7; assay: Clonogenic assay, MCF-7; type: cell-based, human; details: 72 h treatment
Protocol: (§2) MCF-7, MRC-5, and SW620 human cell lines were seeded in 6-well plates at a density of 300 cells per well containing 1 mL of medium. […] The cell culture medium was changed to a new medium every 2 days. Cells were washed twice with PBS and fixed with methanol for 30 min, followed by staining with 0.5% crystal violet. The assay was performed in triplicate. Colonies were manually counted, and colony survival was presented as a percentage relative to the respective negative control.

[3] = tested on: SW620; assay: Clonogenic assay, SW620; type: cell-based, human; details: 72 h treatment
Protocol: as §2

[4] = tested on: MCF-7; assay: Alkaline comet assay, MCF-7; type: cell-based, human; details: for Damage Índex (DI) ± SD, MCF-7: 3 h
Protocol: as §1

[5] = tested on: SW620; assay: Alkaline comet assay, SW620; type: cell-based, human; details: for Damage Índex (DI) ± SD, SW620: 3 h
Protocol: as §1

[6] = ABTS radical cation scavenging assay; type: biochemical
Source text: (§3) Both colorimetric assays are being used to estimate the radical scavenging capacity of organic and inorganic compounds [71, 72]. When DPPH reacts with an antioxidant compound, its free radical property is lost, and its color changes from violet to yellow. In the presence of an antioxidant, the ABTS radical, which has a strong absorption band at 734 nm, will be scavenged, and the reaction mixture will turn from blue to green. The results are expressed as a percentage of inhibition of DPPH radical or ABTS^+ radical when compared to samples from the control group (DMSO) without the compounds/standard (0% of radical inhibition). The experiment was repeated three times at each concentration.
The radical cation ABTS was previously generated with sodium persulfate in the presence of potassium phosphate buffer. Briefly, the ABTS solution diluted in a phosphate buffer saline pH 7.4 was mixed with an aliquot of the compound for 30 min at room temperature in the dark. The ascorbic acid at 1, 10, 100, and 200 µM was used as a positive control to determine the maximal decrease in the ABTS^+ absorbance. The color reaction was measured at 730 nm and the results were expressed as a percentage (%) of the control. The ABTS radical scavenging capacity was calculated by the following equation: % ABTS^+ radical scavenging activity = {(A0 − A1)/A0} × 100 where A0 indicates the absorbance of the blank and A1 indicates the absorbance in the presence of the test sample.

[7] = tested on: V79 cells; assay: MTT cell viability assay, V79 cells; type: cell-based, Chinese hamster; details: Cricetulus griseus, V79, 24 h; read-out: IC50 V79 cell line
Protocol: (§4) Chinese hamster lung fibroblast (V79) cells and human cell lines [MCF-7 (breast adenocarcinoma), SW620 (colorectal adenocarcinoma), and MRC-5 (normal lung fibroblast)] were obtained from the Rio de Janeiro Cell Bank (Rio de Janeiro, RJ, Brazil). The cell lines were grown in DMEM supplemented with 10% heat-inactivated FBS or RPMI-1640 supplemented with 20% FBS, 0.2 mg/mL L-glutamine, 100 IU/mL penicillin, and 100 µg/mL streptomycin. Cells were kept in tissue culture flasks at 37 °C in a humidified atmosphere containing 5% CO2 and were harvested by treatment with 0.15% trypsin −0.08% EDTA in PBS.
The cytotoxic potential of all compounds was measured by the methylthiazol tetrazolium (MTT) assay in Chinese hamster lung fibroblasts and human cell lines. Cell lines were cultured in a 96-well plate (1 × 10^4 cells/well) in complete media. […] The activity of this solvent alone was measured by a blank sample solution containing the same amount of DMSO. After the exposure period, the culture media were replaced with the addition of 100 µL serum-free media containing the 3-(4,5-dimethylthiazol-2-yl)-2,5-diphenyltetrazolium bromide) (MTT) dye (1 mg/mL), and incubated for 3 h at 37 °C After incubation, the supernatant was removed, the residual purple formazan product was solubilized in 150 µL DMSO, and its absorbance was measured at 570 nm. […]

[8] = tested on: MRC-5 (normal lung fibroblast); assay: MTT cell viability assay, MRC-5; type: cell-based, human; details: for Concentration at which cytotoxicity starts, MRC-5: 24 h and 72 h; for IC50: Homo sapiens
Protocol: as §4
(§5) The cytotoxic potential of all compounds was measured by the methylthiazol tetrazolium (MTT) assay in Chinese hamster lung fibroblasts and human cell lines. Cell lines were cultured in a 96-well plate (1 × 10^4 cells/well) in complete media. V79 cells were treated for 24 h with all compounds at concentrations of 1, 10, 50 and100 µM. […] All compounds were dissolved in DMSO and added to the medium to reach the desired concentrations (0.1% of DMSO). The activity of this solvent alone was measured by a blank sample solution containing the same amount of DMSO. After the exposure period, the culture media were replaced with the addition of 100 µL serum-free media containing the 3-(4,5-dimethylthiazol-2-yl)-2,5-diphenyltetrazolium bromide) (MTT) dye (1 mg/mL), and incubated for 3 h at 37 °C After incubation, the supernatant was removed, the residual purple formazan product was solubilized in 150 µL DMSO, and its absorbance was measured at 570 nm. The assay was performed in triplicate.

[9] = tested on: MCF-7 (breast adenocarcinoma); assay: MTT cell viability assay, MCF-7; type: cell-based, human; details: for Concentration at which cytotoxicity starts, MCF-7: 24 h and 72 h; for IC50: Homo sapiens
Protocol: as §4, §5

[10] = DPPH radical scavenging assay; type: biochemical; details: for Antioxidant ability in the DPPH radical capture assay: test doses 1-200 µM
Source text: as §3
DPPH assay: To determine the 1,1-diphenylpicrylhydrazyl (DPPH) radical scavenging activity, different concentrations of compounds (1, 5, 10, 50, 100, and 200 μM) were mixed with a methanolic solution of 0.1 mM DPPH radical for 30 min at 30 °C in the dark. The absorbance of the mixture was measured spectrophotometrically at 517 nm. The coloration change of the DPPH ethanolic solution from deep purple to yellow indicates the presence of antioxidants and then the free radical scavenging effect of these compounds. The ascorbic acid at 1, 10, 100, and 200 µM was used as a positive control to determine the maximal decrease in the DPPH absorbance. The percentage of DPPH radical scavenging activity was calculated by the following equation:% DPPH radical scavenging activity = {(A0 − A1)/A0} × 100 where A0 is the absorbance of the control, and A1 is the absorbance of the compounds/standard.

[11] = tested on: SW620 (colorectal adenocarcinoma); assay: MTT cell viability assay, SW620; type: cell-based, human; details: for Concentration at which cytotoxicity starts, SW620: 24 h and 72 h; for IC50: Homo sapiens
Protocol: as §4, §5

[12] = tested on: MRC-5; assay: Clonogenic assay, MRC-5; type: cell-based, human; details: 72 h treatment; general statement covers MCF-7, SW620 and MRC-5
Protocol: as §2

[13] = tested on: SW620 (colorectal adenocarcinoma); details: 72 h; cited from earlier work
[14] = tested on: MCF-7 (breast adenocarcinoma); design: method as in PMID 36592511; details: 72 h; cited from earlier work

SMILES	Concentrations that increase damage index (DI), MRC-5 [1]	Damage Índex (DI) ± SD, MRC-5 ([1]; 1 μM)	Damage Índex (DI) ± SD, MRC-5 ([1]; 10 μM)	Damage Índex (DI) ± SD, MRC-5 ([1]; 50 μM)	Damage Índex (DI) ± SD, MRC-5 ([1]; 100 μM)	Inhibition of colony survival, SW620 compared with MRC-5 [3]	Concentrations that increase damage index (DI), MCF-7 [4]	Damage Índex (DI) ± SD, MCF-7 ([4]; 1 μM)	Damage Índex (DI) ± SD, MCF-7 ([4]; 10 μM)	Damage Índex (DI) ± SD, MCF-7 ([4]; 50 μM)	Damage Índex (DI) ± SD, MCF-7 ([4]; 100 μM)	Concentrations that increase damage index (DI), SW620 [5]	Damage Índex (DI) ± SD, SW620 ([5]; 1 μM)	Damage Índex (DI) ± SD, SW620 ([5]; 10 μM)	Damage Índex (DI) ± SD, SW620 ([5]; 50 μM)	Damage Índex (DI) ± SD, SW620 ([5]; 100 μM)	IC50 [7] [µM]	Concentration at which cytotoxicity starts, MRC-5 [8] [µM]	IC50 ([8]; MRC5, 24 h) [µM]	IC50 ([8]; MRC5, 72 h) [µM]	further results
CC(C)(C)c1cc(/C=N/CCNc2ccccc2)c(O)c(C(C)(C)C)c1 [1a]	10 to 100 µM	19.3 ± 3.9	39.7 ± 9.5	121.3 ± 10.0	200.3 ± 22.0	not selective	10 to 100 µM	14.7 ± 3.2	34.3 ± 4.2	100.7 ± 2.9	154.7 ± 7.2	50 µM and 100 µM	16.7 ± 2.5	21.3 ± 6.7	107.0 ± 7.2	212.3 ± 2.5	23	10	14.7 ± 1.1	17.1	Inhibition of colony survival, MCF-7 compared with MRC-5 [2]: not selective; Concentration from which ABTS+ radical scavenging activity is present [6]: 5 µM; Imax (% of maximal inhibition), ABTS+ [6]: up to 87%; IC50 ([6]; concentration to decrease 50% of ABTS+ radical formation): 7.5 ± 2.2 µM; Concentration at which cytotoxicity starts, MCF-7 [9]: 10 µM; IC50 ([9]; MCF7, 24 h): 30.5 ± 4.4 µM; IC50 ([9]; MCF7, 72 h): 28.6 µM; Antioxidant ability in the DPPH radical capture assay [10]: inability to be antioxidants; Concentration at which cytotoxicity starts, SW620 [11]: 10 µM; IC50 ([11]; SW-620, 24 h): 27.6 ± 1.2 µM; IC50 ([11]; SW-620, 72 h): 16.4 µM
CC(C)(C)c1cc(/C=N/c2cccc3cccnc23)c(O)c(C(C)(C)C)c1 [1b, [6-(C9H6N-8-(N=CH))-2,4-di-tert-butyl-(OHC6H2)]]	50 µM and 100 µM	16.3 ± 2.5	20.0 ± 5.2	101.0 ± 5.0	135.0 ± 6.2	more potent inhibitory effect on the SW620 cells than on MRC-5 cells	50 µM and 100 µM	16.0 ± 4.0	22.3 ± 6.4	52.7 ± 9.5	102.0 ± 6.0	≥ 10 µM	10.0 ± 1.0	34.7 ± 7.4	120.0 ± 5.3	236.0 ± 8.2	69 ± 9	10	63.4 ± 5.5	15.5	ABTS+ radical scavenging activity ([6]; doses 1-200 µM): inactive at all doses; Concentration at which cytotoxicity starts, MCF-7 [9]: 10 µM; IC50 ([9]; MCF7, 24 h): 111 ± 9.5 µM; IC50 ([9]; MCF7, 72 h): 44.5 µM; Inhibition of cell proliferation at the highest treatment concentrations tested (colony survival) [12]: not statistically significant; Antioxidant ability in the DPPH radical capture assay [10]: inability to be antioxidants; Concentration at which cytotoxicity starts, SW620 [11]: 1 µM; IC50 ([11]; SW-620, 24 h): 41.9 ± 9.7 µM; IC50 ([11]; SW-620, 72 h): 10.5 µM
O=c1[nH]cc(F)c(=O)[nH]1 [5-Fluorouracil]	–	–	–	–	–	–	–	–	–	–	–	–	–	–	–	–	–	–	–	–	IC50 [13]: 4 µM
O=C1O[C@H]([C@@H](O)CO)C(O)=C1O [Ascorbic acid, ascorbic acid, reference compound]	–	–	–	–	–	–	–	–	–	–	–	–	–	–	–	–	–	–	–	–	IC50 ([10]; concentration to decrease 50% of DPPH radical formation): 17 µM
N.N.[Cl][Pt][Cl] [cisplatin]	–	–	–	–	–	–	–	–	–	–	–	–	–	–	–	–	–	–	–	–	IC50 [14]: 12.7 ± 0.1 µM
